Our source for the emission maximum values is the Deep4Chem optical property database.

The data set in a line: solvent given as SMILES.

In the case of `CCCCNc1ccc(NCCCC)c2c1C(=O)c1ccccc1C2=O`, the emission maximum reads like this: (in C1CCCCC1) 665 nm; (in C1COCCO1) 672 nm; (in CC(C)=O) 671 nm; (in CCCCCCCCCCO) 668 nm; (in CCCCCCCO) 661 nm; (in CCCCCCO) 670 nm. Besides, the emission maximum is, setting by setting: (in CCCCO) 671 nm; (in CCO) 674 nm; (in CN(C)C=O) 664 nm; (in CO) 666 nm; (in CS(C)=O) 678 nm; (in ClC(Cl)(Cl)Cl) 675 nm. The compound also showed an emission maximum (in c1ccccc1) of 667 nm.

For `CN(C)c1cccc2c1C(=O)c1ccccc1-2`, the emission maximum is, setting by setting: (in C1CCCCC1) 498 nm; (in CC#N) 534 nm; (in CCO) 541 nm; (in c1ccccc1) 520 nm.

For the setting “in ClC(Cl)Cl”, `Cc1ccc(C2=Cc3c4ccccc4c4ccccc4[n+]3[B-](F)(F)O2)cc1` came in with an emission maximum of 450 nm.

Turning to `Cc1ccccc1-c1c2ccc(=[N+]3CCCCC3)cc-2oc2cc(N3CCCCC3)ccc12`, the emission maximum by setting is: (in CCO) 584 nm; (in ClCCl) 582 nm.

For the compound `CC1=C(Cc2ccccc2)C(C)=[N+]2C1=C(C)c1c(C)c(-c3csc(N4CCOCC4)n3)c(C)n1[B-]2(F)F`, the emission maximum came out at 620 nm (in C1CCOC1); 602 nm (in C1COCCO1); 537 nm (in CC#N); 543 nm (in CC(C)O); 538 nm (in CCO); 545 nm (in CCOC(C)=O). In addition, the emission maximum (in CN(C)C=O) came out at 537 nm; the emission maximum (in CO) was determined as 539 nm; the emission maximum (in CS(C)=O) turned out to be 548 nm; the emission maximum (in Cc1ccccc1) is given as 603 nm; the emission maximum (in ClC(Cl)Cl) is given as 607 nm; the emission maximum (in ClCCl) is reported as 535 nm.

Regarding `O=C1c2ccccc2-c2c(-c3ccccc3O)[nH]c(=O)n21`, the emission maximum is, setting by setting: (in CC#N) 480 nm; (in CO) 498 nm; (in ClCCl) 477 nm.

`c1cc2c3c(c1)-c1cccc4cccc(c14)B3c1cccc3cccc-2c13` yielded an emission maximum (in Cc1ccccc1) of 491 nm.

`COc1cc(C(=O)O)cc(OC)c1O`: the emission maximum (in O) was determined as 333 nm.

`CC(=O)O[B-]1(OC(C)=O)OC(/C=C/c2ccc(C)cc2)=CC(/C=C/c2ccc(C)cc2)=[O+]1` displayed an emission maximum (in C1CCOC1) of 484 nm; an emission maximum (in CC#N) of 493 nm; an emission maximum (in CC(C)=O) of 489 nm; an emission maximum (in CS(C)=O) of 499 nm; an emission maximum (in Cc1ccccc1) of 481 nm; an emission maximum (in ClC(Cl)Cl) of 491 nm. The same compound yielded an emission maximum (in ClCCl) of 492 nm.

Consider `N#Cc1nc2c3ccc(-n4c5ccccc5c5ccccc54)cc3c3cc(-n4c5ccccc5c5ccccc54)ccc3c2nc1C#N`, for which the emission maximum (in C1COCCO1) is given as 568.06 nm; the emission maximum (in CCCCCC) amounted to 469.61 nm; the emission maximum (in Cc1ccccc1) stood at 531 nm; the emission maximum (in ClC(Cl)Cl) amounted to 612.69 nm; the emission maximum (in O=P(c1ccccc1)(c1ccccc1)c1cccc(-c2cc(-n3c4ccccc4c4ccccc43)cc(-n3c4ccccc4c4ccccc43)c2)n1) is 560 nm.

Regarding `CC[n+]1nc2cc3c4c(c2c2cc(F)ccc21)CCCN4CCC3`, the emission maximum (in O) is on record as 564 nm.

With `C1=C(c2ccc(-c3cccs3)s2)CCC1`, the emission maximum reads like this: (in C1CCOC1) 413 nm; (in CC#N) 412 nm; (in CCCCCC) 410 nm; (in CCO) 408 nm; (in OCCOCCO) 416 nm; (in c1ccncc1) 418 nm.

As for `O=S(=O)(c1ccccc1)c1ccc(-c2ccc3c4ccc(-c5ccc(S(=O)(=O)c6ccccc6)cc5)cc4n(-c4ccccc4)c3c2)cc1`, the emission maximum is, setting by setting: (in CCCCCC) 409 nm; (in CN(C)C=O) 437 nm; (in CO) 434 nm; (in Cc1ccccc1) 413 nm; (in ClCCl) 411 nm.

Take `COC(=O)C(NC(=O)OC(C)(C)C)c1ccc2oc(-c3ccc(F)cc3)nc2c1` (stereo unspecified): the emission maximum reads like this: (in CC1CCCCC1) 320 nm; (in CC#N) 341 nm; (in CO) 342 nm.

With `CCOC(=O)c1c(-c2cc3c(ccc4ccccc43)oc2=O)nn(-c2cccc(Cl)c2)c1C(=O)OCC`, under “in ClCCl”, the emission maximum amounted to 442 nm.

Consider `Cc1cccc(C)c1N1C(c2ccccc2)=Cc2cccc[n+]2[B-]1(F)F`, for which the emission maximum (in ClCCl) was 453 nm.

On to `CN(C)c1ccc2nc3c(cc2c1)c(-c1ccccc1)nn3-c1ccccc1`, for which the emission maximum is, setting by setting: (in C1CCCCC1) 444.44 nm; (in C1CCOC1) 534.19 nm; (in CC#N) 561.48 nm; (in CC(C)=O) 552.79 nm; (in CCCCCl) 516 nm; (in CCCCOCCCC) 498.75 nm. This compound also returned an emission maximum (in CN(C)C=O) of 566.89 nm.

Consider `CC(C)(C)c1ccc2c(c1)c1cc(C(C)(C)C)ccc1n2-c1ccc(C#Cc2ccc(C#Cc3ccc(C=C(C#N)C#N)cc3)cc2)cc1`, for which, for the setting “in ClCCl”, the emission maximum was determined as 474 nm.

For `Cc1ccc(N(c2ccc(C)cc2)c2ccc(-c3ccc(-c4ccc(N(c5ccc(C)cc5)c5ccc(C)cc5)cc4)c4nsnc34)cc2)cc1`, the emission maximum by setting is: (in Cc1ccccc1) 628 nm; (in ClCCl) 609 nm.

`CN(C)c1ccc(-c2nc(-c3ccccc3)c3ccccn23)cc1`: the emission maximum (in C1CCCCC1) came out at 482 nm; the emission maximum (in CC#N) is recorded as 509 nm; the emission maximum (in CO) is 500 nm; the emission maximum (in ClCCl) is 495 nm; the emission maximum (in O) came out at 512 nm.

Take `CC1(C)c2cc(/C=C/c3nc(/C=C/c4ccc5c(c4)C(C)(C)c4cc(N(c6ccccc6)c6ccc7ccccc7c6)ccc4-5)nc(/C=C/c4ccc5c(c4)C(C)(C)c4cc(N(c6ccccc6)c6ccc7ccccc7c6)ccc4-5)n3)ccc2-c2ccc(N(c3ccccc3)c3ccc4ccccc4c3)cc21`: for the setting “in C1CCOC1”, the emission maximum was found to be 440 nm.

Take `O=Cc1ccc(C2=C3C=c4c(oc5ccccc45)=[N+]3[B-](F)(F)n3c2cc2c4ccccc4oc23)cc1`: the emission maximum runs as follows: (in C1CCCCC1) 612 nm; (in C1CCOC1) 615 nm; (in CC#N) 611 nm; (in CCOC(C)=O) 610 nm; (in CN(C)C=O) 615.5 nm; (in CO) 609.5 nm. Also, the emission maximum (in Cc1ccccc1) worked out at 620.5 nm and the emission maximum (in ClCCl) came to 618.5 nm.

As to `CON(C)C(=O)c1ccc(/C=C/c2ccc(/C=C/c3ccc(C(=O)N(C)OC)cc3)cc2)cc1`, for the setting “in c1ccccc1”, the emission maximum was found to be 434 nm.

Regarding `CCCCCCCCN1c2ccc(C#Cc3ccc(F)cc3)cc2Sc2cc(C=O)ccc21`, the emission maximum reads like this: (in C1CCOC1) 513 nm; (in CC#N) 538 nm; (in CCCCCC) 488 nm; (in CO) 466 nm; (in CS(C)=O) 542 nm; (in Cc1ccccc1) 507 nm. For the same compound, the emission maximum (in ClC(Cl)Cl) came out at 539 nm.

As to `CCCCN1C(=O)c2cc(Oc3ccc(C(C)(C)C)cc3)c3c4c(Oc5ccc(C(C)(C)C)cc5)cc5c(=O)[nH]/c(=C\c6ccccn6)c6cc(Oc7ccc(C(C)(C)C)cc7)c(c7c(Oc8ccc(C(C)(C)C)cc8)cc(c2c37)C1=O)c4c56`, the emission maximum (in ClCCl) came to 652 nm.

For the setting “in ClCCl”, `COc1ccc(-c2c3cc4cc(C)sc4cc3c(-c3ccc(OC)cc3)c3cc4cc(C)sc4cc23)cc1` displayed an emission maximum of 514 nm.

`CC1=CC(C)=[N+]2C1=C(C1=C(C)C3=C(C)c4c(C)cc(C)n4[B-](F)(F)[N+]3=C1C)c1c(C)cc(C)n1[B-]2(F)F` gave an emission maximum (in ClC(Cl)Cl) of 527 nm.

As for `Cc1cc(C)c(C2=C3C=C(/C=C/C(=O)OC(C)(C)C)C=[N+]3[B-](F)(F)n3c2ccc3N2CCCC2)c(C)c1`, for the setting “in ClCCl”, the emission maximum is 551 nm.

For the compound `CCCCc1cc(CCCC)c2ccc3c(CCCC)cc(CCCC)c4ccc1c2c43`, the emission maximum came to 388 nm (in CCCCCC), 388 nm (in CO) and 389 nm (in ClCCl).

`CC(C)(C)c1ccc2c(c1)c1cc(C(C)(C)C)ccc1n2-c1cc(-n2c3ccc(C(C)(C)C)cc3c3cc(C(C)(C)C)ccc32)c(-n2c3ccc(C(C)(C)C)cc3c3cc(C(C)(C)C)ccc32)c(C#N)c1-n1c2ccc(C(C)(C)C)cc2c2cc(C(C)(C)C)ccc21`: the emission maximum amounted to 449.25 nm (in CCCCCC), 484.15 nm (in CCO), 456 nm (in Cc1ccccc1) and 472.48 nm (in ClCCl).

Compound `CC[B-]1(CC)c2cccc3cc4ccccc4c(c23)-c2cccc(C)[n+]21` showed an emission maximum (in ClCCl) of 538 nm.

In the case of `Cc1cc(C)c(B(c2cc(-c3ccc(C(F)(F)F)cc3)sc2-c2sc(-c3ccc(C(F)(F)F)cc3)cc2P(=O)(c2ccccc2)c2ccccc2)c2c(C)cc(C)cc2C)c(C)c1`, the emission maximum (in CO) was found to be 548 nm.

In turn, `Cc1cc2nc3c(=O)[nH]c(=O)n(C)c3nc2cc1C` showed an emission maximum (in CC#N) of 437 nm.

Turning to `N#Cc1ccc(C[C@H](N)C(=O)O)cc1`, the emission maximum is, setting by setting: (in C1CCOC1) 292.44 nm; (in CCO) 292.99 nm; (in CO) 292.44 nm; (in O) 293.54 nm; (in O=CO) 294.16 nm.

For the setting “in O”, `Cc1cn(CCCn2cc(C)c(=O)[nH]c2=O)c(=O)nc1-n1cncn1` came in with an emission maximum of 382 nm.

`Cc1cc(C)c(B(c2ccc(N(c3ccccc3)c3ccccc3)cc2)c2c(C)cc(C)cc2C)c(C)c1` yielded an emission maximum (in Cc1ccccc1) of 437 nm.

`F[B-]1(F)Oc2c(-c3cccc4c3O[B-](F)(F)[n+]3c(-c5ccccc5)c(-c5ccccc5)n(-c5ccc(C(F)(F)F)cc5)c3-4)cccc2-c2n(-c3ccc(C(F)(F)F)cc3)c(-c3ccccc3)c(-c3ccccc3)[n+]21`: for the setting “in C1CCOC1”, the emission maximum is listed as 399 nm.

`Cc1cc(C)c(B2c3cc(C(C)(C)C)ccc3-c3cccc4cc(C(C)(C)C)cc2c34)c(C)c1`: the emission maximum (in C1CCCCC1) was found to be 431 nm.
